Results as given in patent US12685315B2, “Herbicidal combination” (UPL do Brasil Industria e Comercio de Insumos Agropecuarios …, priority 2019, dated 2026).

Columns and labels:
Assay type in all cases: in vivo
[1] = system: Brachiaria decumbens (BRADC); experiment: Field trial of triple mixes of amicarbazone, pre and post-emergence weed control
Protocol: (§1) Field trials were done to evaluate the efficacy and synergism of the triple mixes of amicarbazone with other herbicides for the control of weeds in pre and post-emergence application.
(§2) The composition of the present invention was applied. This test was performed for species of weeds: Grasses namely BRADC=Brachiaria decumbens, CCHEC=Cenchrus echinatus, ELEIN=Eleusine indica, TRCIN=Digitaria insularis and Broadleaves namely IAQGR=Ipomoea grandifolia, EPHHL=Euphorbia heterophylla, COMBE=Commelina benghalensis. Data were collected at various period after application of the composition to the soil and calculated.

[2] = system: Cenchrus echinatus (CCHEC); experiment: as above
Protocol: as §1, §2

Eleusine indica = experiment: as above
Protocol: as §1, §2

Commelina benghalensis = experiment: Field trial of triple mixes of amicarbazone, pre-emergence weed control; conditions: dose g ai/ha: Amicarbazone 75, Mesotrione 38, Ametryn 250, mix AMC + AME + MST 75 + 38 + 250
Protocol: as §1, §2

Euphorbia heterophylla = experiment: as above; conditions: dose g ai/ha: Amicarbazone 250, Sulfentrazone 150, Diuron 250, mix 250 + 150 + 250
Protocol: as §1, §2

[3] = system: Ipomoea grandifolia (IAQGR); experiment: as above
Protocol: as §1, §2

Digitaria insularis = experiment: Field trial of triple mixes of amicarbazone, post-emergence weed control; conditions: dose g ai/ha: Amicarbazone 75, S-metolachlor 300, Atrazine 250, mix 75 + 300 + 250
Protocol: as §1, §2

In the case of CC(C)c1nn(C(=O)NC(C)(C)C)c(=O)n1N [Amicarbazone], the “% Control” value ([1]; Table 1, Post-Emergence, 7 DAA, dose g ai/ha: Amicarbazone 75, Isoxaflutole 15, Atrazine 250, mix 75 + 15 + 250) is reported as 43.8%, the “% Control” value ([1]; Table 1, Post-Emergence, 21 DAA, dose g ai/ha: Amicarbazone 75, Isoxaflutole 15, Atrazine 250, mix 75 + 15 + 250) is reported as 38.8% and the “% Control” value ([1]; Table 1, Post-Emergence, 28 DAA, dose g ai/ha: Amicarbazone 75, Isoxaflutole 15, Atrazine 250, mix 75 + 15 + 250) is reported as 40.0%. The “% Control” value ([1]; Table 1, Pre-Emergence, 7 DAA, dose g ai/ha: Amicarbazone 75, Isoxaflutole 15, Atrazine 250, mix 75 + 15 + 250) was 0.0%, the “% Control” value ([1]; Table 1, Pre-Emergence, 21 DAA, dose g ai/ha: Amicarbazone 75, Isoxaflutole 15, Atrazine 250, mix 75 + 15 + 250) was 0.0% and the “% Control” value ([1]; Table 1, Pre-Emergence, 28 DAA, dose g ai/ha: Amicarbazone 75, Isoxaflutole 15, Atrazine 250, mix 75 + 15 + 250) was 0.0%. For the same compound, the “% Control” value ([1]; Table 5, Post-Emergence, 21 DAA, dose g ai/ha: Amicarbazone 250, Clomazone 250, Diuron 250, mix 250 + 250 + 250) was 25.0%, the “% Control” value ([1]; Table 5, Post-Emergence, 28 DAA, dose g ai/ha: Amicarbazone 250, Clomazone 250, Diuron 250, mix 250 + 250 + 250) was 16.3% and the “% Control” value ([1]; Table 5, Post-Emergence, 35 DAA, dose g ai/ha: Amicarbazone 250, Clomazone 250, Diuron 250, mix 250 + 250 + 250) was 13.8%. The “% Control” value ([1]; Table 5, Pre-Emergence, 21 DAA, dose g ai/ha: Amicarbazone 250, Clomazone 250, Diuron 250, mix 250 + 250 + 250) was 63.8%, the “% Control” value ([1]; Table 5, Pre-Emergence, 28 DAA, dose g ai/ha: Amicarbazone 250, Clomazone 250, Diuron 250, mix 250 + 250 + 250) was 50.0% and the “% Control” value ([1]; Table 5, Pre-Emergence, 35 DAA, dose g ai/ha: Amicarbazone 250, Clomazone 250, Diuron 250, mix 250 + 250 + 250) was 46.3%. For the same compound, the “% Control” value ([2]; Table 2, Post-Emergence, 7 DAA, dose g ai/ha: Amicarbazone 75, Isoxaflutole 15, Atrazine 250, mix 75 + 15 + 250) was 33.8%, the “% Control” value ([2]; Table 2, Post-Emergence, 28 DAA, dose g ai/ha: Amicarbazone 75, Isoxaflutole 15, Atrazine 250, mix 75 + 15 + 250) was 40.0% and the “% Control” value ([2]; Table 2, Post-Emergence, 35 DAA, dose g ai/ha: Amicarbazone 75, Isoxaflutole 15, Atrazine 250, mix 75 + 15 + 250) was 36.3%. The “% Control” value ([2]; Table 6, Post-Emergence, 21 DAA, dose g ai/ha: Amicarbazone 250, Sulfentrazone 150, Diuron 250, mix 250 + 150 + 250) was 0.0%, the “% Control” value ([2]; Table 6, Post-Emergence, 28 DAA, dose g ai/ha: Amicarbazone 250, Sulfentrazone 150, Diuron 250, mix 250 + 150 + 250) was 0.0% and the “% Control” value ([2]; Table 6, Post-Emergence, 35 DAA, dose g ai/ha: Amicarbazone 250, Sulfentrazone 150, Diuron 250, mix 250 + 150 + 250) was 0.0%. For the same compound, the “% Control” value ([2]; Table 6, Pre-Emergence, 21 DAA, dose g ai/ha: Amicarbazone 250, Sulfentrazone 150, Diuron 250, mix 250 + 150 + 250) was 7.5%, the “% Control” value ([2]; Table 6, Pre-Emergence, 28 DAA, dose g ai/ha: Amicarbazone 250, Sulfentrazone 150, Diuron 250, mix 250 + 150 + 250) was 5.0% and the “% Control” value ([2]; Table 6, Pre-Emergence, 35 DAA, dose g ai/ha: Amicarbazone 250, Sulfentrazone 150, Diuron 250, mix 250 + 150 + 250) was 3.3%. For the same compound, the “% Control” value (Eleusine indica; Table 8, Post-Emergence, 14 DAA, dose g ai/ha: Amicarbazone 250, Sulfentrazone 150, Diuron 250, mix 250 + 150 + 250) was 13.8%, the “% Control” value (Eleusine indica; Table 8, Post-Emergence, 21 DAA, dose g ai/ha: Amicarbazone 250, Sulfentrazone 150, Diuron 250, mix 250 + 150 + 250) was 16.3% and the “% Control” value (Eleusine indica; Table 8, Post-Emergence, 28 DAA, dose g ai/ha: Amicarbazone 250, Sulfentrazone 150, Diuron 250, mix 250 + 150 + 250) was 13.8%. For the same compound, the “% Control” value (Eleusine indica; Table 8, Pre-Emergence, 14 DAA, dose g ai/ha: Amicarbazone 250, Sulfentrazone 150, Diuron 250, mix 250 + 150 + 250) was 68.8%, the “% Control” value (Eleusine indica; Table 8, Pre-Emergence, 21 DAA, dose g ai/ha: Amicarbazone 250, Sulfentrazone 150, Diuron 250, mix 250 + 150 + 250) was 92.0% and the “% Control” value (Eleusine indica; Table 8, Pre-Emergence, 28 DAA, dose g ai/ha: Amicarbazone 250, Sulfentrazone 150, Diuron 250, mix 250 + 150 + 250) was 87.0%. The “% Control” value (Eleusine indica; Table 10, Post-Emergence, 14 DAA, dose g ai/ha: Amicarbazone 75, Mesotrione 38, Ametryn 250, mix AMC + AME + MST 75 + 38 + 250) was 0.0%, the “% Control” value (Eleusine indica; Table 10, Post-Emergence, 21 DAA, dose g ai/ha: Amicarbazone 75, Mesotrione 38, Ametryn 250, mix AMC + AME + MST 75 + 38 + 250) was 0.0% and the “% Control” value (Eleusine indica; Table 10, Post-Emergence, 28 DAA, dose g ai/ha: Amicarbazone 75, Mesotrione 38, Ametryn 250, mix AMC + AME + MST 75 + 38 + 250) was 0.0%. The “% Control” value (Eleusine indica; Table 10, Pre-Emergence, 14 DAA, dose g ai/ha: Amicarbazone 75, Mesotrione 38, Ametryn 250, mix AMC + AME + MST 75 + 38 + 250) was 0.0%, the “% Control” value (Eleusine indica; Table 10, Pre-Emergence, 21 DAA, dose g ai/ha: Amicarbazone 75, Mesotrione 38, Ametryn 250, mix AMC + AME + MST 75 + 38 + 250) was 0.0% and the “% Control” value (Eleusine indica; Table 10, Pre-Emergence, 28 DAA, dose g ai/ha: Amicarbazone 75, Mesotrione 38, Ametryn 250, mix AMC + AME + MST 75 + 38 + 250) was 0.0%. For the same compound, the “% Control” value (Commelina benghalensis; Table 11, 21 DAA) was 8.8%, the “% Control” value (Commelina benghalensis; Table 11, 28 DAA) was 7.3% and the “% Control” value (Commelina benghalensis; Table 11, 35 DAA) was 6.8%. For the same compound, the “% Control” value (Euphorbia heterophylla; Table 7, 7 DAA) was 3.8%, the “% Control” value (Euphorbia heterophylla; Table 7, 14 DAA) was 28.8% and the “% Control” value (Euphorbia heterophylla; Table 7, 21 DAA) was 56.3%. For the same compound, the “% Control” value ([3]; Table 3, 14 DAA, dose g ai/ha: Amicarbazone 75, Isoxaflutole 15, Atrazine 250, mix 75 + 15 + 250) was 11.3%, the “% Control” value ([3]; Table 3, 21 DAA, dose g ai/ha: Amicarbazone 75, Isoxaflutole 15, Atrazine 250, mix 75 + 15 + 250) was 0.0% and the “% Control” value ([3]; Table 3, 28 DAA, dose g ai/ha: Amicarbazone 75, Isoxaflutole 15, Atrazine 250, mix 75 + 15 + 250) was 0.0%. The “% Control” value ([3]; Table 4, 7 DAA, dose g ai/ha: Amicarbazone 250, Clomazone 250, Diuron 250, mix 250 + 250 + 250) was 18.8%, the “% Control” value ([3]; Table 4, 14 DAA, dose g ai/ha: Amicarbazone 250, Clomazone 250, Diuron 250, mix 250 + 250 + 250) was 73.8% and the “% Control” value ([3]; Table 4, 28 DAA, dose g ai/ha: Amicarbazone 250, Clomazone 250, Diuron 250, mix 250 + 250 + 250) was 86.5%. For the same compound, the “% Control” value (Digitaria insularis; Table 9, 21 DAA) was 7.5%, the “% Control” value (Digitaria insularis; Table 9, 28 DAA) was 1.3% and the “% Control” value (Digitaria insularis; Table 9, 35 DAA) was 0.5%.
